Results reported in PMC3445454, “Broad and Cross-Clade CD4^+ T-Cell Responses Elicited by a DNA Vaccine Encoding Highly Conserved and Promiscuous HIV-1 M-Group Consensus Peptides” (PLoS ONE, 2012).
Positions count from the first letter of the chain named. pIC50: −log10 of the molar value. Read-outs that look alike come from different tables or passages of the source.

Columns and labels:
Assay in all cases: biochemical
[1] = target: T1, HLA-DP DPA1*01:03/DPB1*04:01 (Homo sapiens, UniProt P04440+P20036); type: binding; conditions: for IC50: read-out: Binding capacity/IC50 (nM) DPA1*01:03 DPB1*04:01
T1 sequence (P20036 29-260): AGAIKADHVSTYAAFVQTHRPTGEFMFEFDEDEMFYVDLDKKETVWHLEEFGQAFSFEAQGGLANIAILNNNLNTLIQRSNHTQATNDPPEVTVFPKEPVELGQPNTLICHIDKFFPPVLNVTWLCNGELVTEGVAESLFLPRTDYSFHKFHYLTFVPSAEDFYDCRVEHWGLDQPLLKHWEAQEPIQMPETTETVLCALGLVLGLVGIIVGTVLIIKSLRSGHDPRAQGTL
T1 sequence (P04440 30-258): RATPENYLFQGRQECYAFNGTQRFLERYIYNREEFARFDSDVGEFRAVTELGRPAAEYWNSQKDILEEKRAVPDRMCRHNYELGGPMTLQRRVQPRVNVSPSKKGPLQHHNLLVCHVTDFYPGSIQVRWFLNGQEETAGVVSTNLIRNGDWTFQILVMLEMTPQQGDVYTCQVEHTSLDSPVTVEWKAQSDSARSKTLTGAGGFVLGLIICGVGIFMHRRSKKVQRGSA

HLA-DR DRB3*02:02 = HLA-DR DRB3*02:02 (Homo sapiens, UniProt P01903+P79483, A212P/D57E/F66Y/L67A/R103Q/R218S/R40L/S89Y/T80R/V86D/Y55F/Y59H); type: binding; conditions: for IC50: read-out: Binding capacity/IC50 (nM) DRB3*02:02
HLA-DR DRB1*01:01 = HLA-DR DRB1*01:01 (Homo sapiens, UniProt P01903+P01911, A100R/D57E/F55L/F60I/F76Y/I96L/L162R/M171V/P40L/Q125E/R42F/V115G/Y59C); type: binding; conditions: for IC50: read-out: Binding capacity/IC50 (nM) DRB1*01:01
HLA-DR DRB1*09:01 = HLA-DR DRB1*09:01 (Homo sapiens, UniProt P01903+P01911, A100R/A103E/D57H/D86V/F55Y/F60I/F76Y/I96F/K127E/L162R/M171V/P40D/Q125H/Q99R/R33Q/R42F/S133A/S66N/T210M/V115G/W38K/Y107V/Y59G/Y89S); type: binding; conditions: for IC50: read-out: Binding capacity/IC50 (nM) DRB1*09:01
[2] = target: HLA-DP DPA1*03:01/DPB1*04:02 (Homo sapiens, UniProt P04440+P20036, A42M/A65V/A84D/A85E/L207M/L97S)
HLA-DR DRB1*03:01 = HLA-DR DRB1*03:01 (Homo sapiens, UniProt P01903+P01911, A100K/A102G/A103R/A169T/F55Y/I96L/K41T/L162R/M171V/P40S/Q125H/Q178H/Q39Y/R42S/S66N/T106N/T262R/W38E/Y61H); type: binding; conditions: for IC50: read-out: Binding capacity/IC50 (nM) DRB1*03:01
[3] = target: T2, HLA-DP DPA1*02:01/DPB1*14:01 (Homo sapiens, UniProt P04440+P20036, A65V/A84D/A85E/E86D/F191V/F38H/G113D/G114E/G40L/I94L/K142R/L158P/L37V/M105V/M116V/M62Q/P115A/Q81R/R125K/T114A/T199I/T259P); type: binding; conditions: for IC50: read-out: Binding capacity/IC50 (nM) DPA1*02:01 DPB1*14:01
T2 sequence (P20036 29-260 A42M/M62Q/Q81R/T114A/K142R/L158P/F191V/T259P): T1 sequence (P20036 29-260) with A14M, M34Q, Q53R, T86A, K114R, L130P, F163V, T231P
T2 sequence (P04440 30-258 L37V/F38H/G40L/A65V/A84D/A85E/E86D/I94L/M105V/G113D/G114E/P115A/M116V/R125K/T199I/R223Q): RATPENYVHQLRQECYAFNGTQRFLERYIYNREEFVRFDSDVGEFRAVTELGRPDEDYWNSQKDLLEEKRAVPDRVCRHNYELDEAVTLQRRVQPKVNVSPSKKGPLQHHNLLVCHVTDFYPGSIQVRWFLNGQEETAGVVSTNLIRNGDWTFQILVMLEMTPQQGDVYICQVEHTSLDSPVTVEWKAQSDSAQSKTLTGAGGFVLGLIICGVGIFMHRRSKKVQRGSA

HLA-DR DRB1*15:01 = HLA-DR DRB1*15:01 (Homo sapiens, UniProt P01903+P01911); type: binding; conditions: for IC50: read-out: Binding capacity/IC50 (nM) DRB1*15:01
HLA-DR DRB3*01:01 = HLA-DR DRB3*01:01 (Homo sapiens, UniProt P01903+P79483); type: binding; conditions: read-out: Binding capacity/IC50 (nM) DRB3*01:01
HLA-DR DRB1*07:01 = HLA-DR DRB1*07:01 (Homo sapiens, UniProt P01903+P01911, A100R/A102G/A103Q/D57E/D86V/E43K/F76Y/K127E/L162R/M171V/P40G/Q125H/Q99D/R33Q/R42Y/R54Q/S133A/S66F/T210M/V115G/Y107V/Y59L/Y89S); type: binding; conditions: for IC50: read-out: Binding capacity/IC50 (nM) DRB1*07:01
HLA-DR DRB1*10:01 = HLA-DR DRB1*10:01 (Homo sapiens, UniProt P01903+P01911, A100R/A169T/D57E/F55L/F60V/F69Y/F76Y/I96L/L162R/M171V/P40V/Q260P/Q39E/Q99R/R195Q/R42F/S149N/S66Y/T210M/V115G/V67A/W38E/Y59R/Y61H); type: binding; conditions: for IC50: read-out: Binding capacity/IC50 (nM) DRB1*10:01
HLA-DR DRB1*12:01 = HLA-DR DRB1*12:01 (Homo sapiens, UniProt P01903+P01911, A100R/A169T/D57E/D86V/F55L/H45Y/K41T/L162R/M171V/P40S/Q125H/Q178H/Q39Y/Q99D/R42G/S66L/T262R/V114A/V67L/W38E/Y59H/Y61H/Y89S); type: binding; conditions: for IC50: read-out: Binding capacity/IC50 (nM) DRB1*12:01

Sequence of HLA-DR DRB1*03:01 (P01903 26-254 limits assumed, other chains not shown): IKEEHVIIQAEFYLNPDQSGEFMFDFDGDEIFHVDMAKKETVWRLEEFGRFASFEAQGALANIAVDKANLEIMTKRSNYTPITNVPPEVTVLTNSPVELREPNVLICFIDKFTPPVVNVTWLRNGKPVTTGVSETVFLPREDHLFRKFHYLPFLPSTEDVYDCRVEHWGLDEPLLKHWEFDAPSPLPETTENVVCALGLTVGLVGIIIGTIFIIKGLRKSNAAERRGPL
Sequence of HLA-DR DRB3*02:02 (P01903 26-254 limits assumed): as the sequence (P01903 26-254 limits assumed, other chains not shown) above
Sequence of HLA-DR DRB3*02:02 (P79483 30-266 R40L/Y55F/D57E/Y59H/F66Y/L67A/T80R/V86D/S89Y/R103Q/A212P/R218S limits assumed): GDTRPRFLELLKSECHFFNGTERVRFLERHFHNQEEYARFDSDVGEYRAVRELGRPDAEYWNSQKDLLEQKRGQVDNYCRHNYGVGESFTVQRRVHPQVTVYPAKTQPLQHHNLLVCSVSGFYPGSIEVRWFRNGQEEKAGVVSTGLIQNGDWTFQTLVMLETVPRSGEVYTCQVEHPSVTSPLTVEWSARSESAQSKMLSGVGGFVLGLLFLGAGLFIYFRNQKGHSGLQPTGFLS
Sequence of HLA-DP DPA1*03:01/DPB1*04:02 (P04440 whole entry A65V/A84D/A85E/L207M): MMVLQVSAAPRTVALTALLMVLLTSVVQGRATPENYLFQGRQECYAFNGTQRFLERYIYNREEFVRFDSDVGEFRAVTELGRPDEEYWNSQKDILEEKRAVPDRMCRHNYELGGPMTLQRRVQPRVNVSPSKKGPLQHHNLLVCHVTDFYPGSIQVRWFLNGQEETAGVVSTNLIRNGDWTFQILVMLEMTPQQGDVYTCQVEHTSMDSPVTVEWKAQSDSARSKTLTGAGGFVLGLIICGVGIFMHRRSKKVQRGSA
Sequence of HLA-DP DPA1*03:01/DPB1*04:02 (P20036 whole entry A42M/L97S): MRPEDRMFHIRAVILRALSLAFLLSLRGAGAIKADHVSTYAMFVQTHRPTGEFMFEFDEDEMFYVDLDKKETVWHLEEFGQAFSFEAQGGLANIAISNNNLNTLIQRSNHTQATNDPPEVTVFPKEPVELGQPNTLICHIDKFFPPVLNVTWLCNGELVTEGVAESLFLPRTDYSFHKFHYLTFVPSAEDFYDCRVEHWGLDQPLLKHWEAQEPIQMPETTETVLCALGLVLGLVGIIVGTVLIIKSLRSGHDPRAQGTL

Q: What does the source list for `CSCC[C@H](NC(=O)[C@H](CCCCN)NC(=O)[C@H](C)NC(=O)[C@H](Cc1ccc(O)cc1)NC(=O)[C@H](CCCCN)NC(=O)CNC(=O)[C@@H](NC(=O)[C@H](CCCCN)NC(=O)[C@H](CC(C)C)NC(=O)[C@H](CC(N)=O)NC(=O)[C@H](CCCCN)NC(=O)[C@H](Cc1ccccc1)NC(=O)[C@@H]1CCCN1C(=O)[C@H](CCC(=O)O)NC(=O)[C@@H](N)CCC(N)=O)[C@@H](C)O)C(N)=O` [RT(343-357)]?
A: pIC50 [1]: 7.85; pIC50 (HLA-DR DRB3*02:02): 5.06; pIC50 (HLA-DR DRB1*01:01): 7.09; pIC50 (HLA-DR DRB1*09:01): 6.47; pIC50 [2]: 5.38; pIC50 (HLA-DR DRB1*03:01): 4.63; pIC50 [3]: 4.82; IC50 (HLA-DR DRB1*15:01): 47 nM; IC50 (HLA-DR DRB3*01:01): 5610 nM; pIC50 (HLA-DR DRB1*07:01): 5.21; pIC50 (HLA-DR DRB1*10:01): 7.72; pIC50 (HLA-DR DRB1*12:01): 6.62

Q: How did the pIC50 [1] turn out when `CC[C@H](C)[C@H](NC(=O)[C@H](CCCCN)NC(=O)[C@H](CCC(N)=O)NC(=O)[C@@H](NC(=O)[C@H](C)NC(=O)[C@H](CCC(=O)O)NC(=O)[C@@H](N)[C@@H](C)O)C(C)C)C(=O)N[C@@H](C)C(=O)N[C@H](C(=O)N[C@@H](CCC(=O)O)C(=O)N[C@@H](CO)C(=O)N[C@H](C(=O)N[C@H](C(=O)N[C@H](C(=O)N[C@@H](Cc1c[nH]c2ccccc12)C(=O)NCC(=O)N[C@@H](CCCCN)C(=O)N[C@H](C(=O)N1CCC[C@H]1C(=O)N[C@@H](CCCCN)C(=O)N[C@@H](Cc1ccccc1)C(=O)N[C@@H](CCCNC(=N)N)C(=O)N[C@@H](CC(C)C)C(N)=O)[C@@H](C)O)[C@@H](C)CC)C(C)C)[C@@H](C)CC)[C@@H](C)O` [RT(369-391)] was run?
A: 5.49

Q: What about the IC50 (HLA-DR DRB3*02:02) of the same compound?
A: 8840 nM

Q: What about the IC50 (HLA-DR DRB1*01:01) of the same compound?
A: 65 nM

Q: And the IC50 (HLA-DR DRB1*09:01)?
A: 310 nM

Q: What about the pIC50 [2] of the same compound?
A: 5.76

Q: And the IC50 (HLA-DR DRB1*03:01)?
A: 287 nM

Q: What about the IC50 [3] of the same compound?
A: 78 nM

Q: What about the pIC50 (HLA-DR DRB1*15:01) of the same compound?
A: 6.35

Q: And the IC50 (HLA-DR DRB3*01:01)?
A: 6230 nM

Q: What about the IC50 (HLA-DR DRB1*07:01) of the same compound?
A: 20 nM

Q: And the IC50 (HLA-DR DRB1*10:01)?
A: 24 nM

Q: What about the IC50 (HLA-DR DRB1*12:01) of the same compound?
A: 471 nM

Q: How did the IC50 [1] turn out when `CC(C)C[C@H](NC(=O)[C@H](CCCCN)NC(=O)[C@@H](NC(=O)[C@H](CC(C)C)NC(=O)[C@@H]1CCCN1C(=O)[C@@H]1CCCN1C(=O)[C@@H](NC(=O)[C@H](CC(N)=O)NC(=O)[C@@H](NC(=O)[C@H](Cc1ccccc1)NC(=O)[C@H](CCC(=O)O)NC(=O)[C@H](Cc1c[nH]c2ccccc12)NC(=O)[C@@H](N)CCC(=O)O)C(C)C)[C@@H](C)O)C(C)C)C(=O)N[C@@H](Cc1c[nH]c2ccccc12)C(=O)N[C@@H](Cc1ccc(O)cc1)C(N)=O` [RT(413-427)] was run?
A: 846 nM

Q: And the IC50 (HLA-DR DRB3*02:02)?
A: 4.4 nM

Q: What about the pIC50 (HLA-DR DRB1*01:01) of the same compound?
A: 7.59

Q: And the pIC50 (HLA-DR DRB1*09:01)?
A: 7.24

Q: And the pIC50 [2]?
A: 8.15

Q: And the pIC50 (HLA-DR DRB1*03:01)?
A: 6.33

Q: And the IC50 [3]?
A: 1200 nM

Q: And the IC50 (HLA-DR DRB1*15:01)?
A: 329 nM

Q: What about the IC50 (HLA-DR DRB3*01:01) of the same compound?
A: 2390 nM

Q: What about the pIC50 (HLA-DR DRB1*07:01) of the same compound?
A: 7.41

Q: What about the pIC50 (HLA-DR DRB1*10:01) of the same compound?
A: 7.92

Q: What about the pIC50 (HLA-DR DRB1*12:01) of the same compound?
A: 6.59

Q: How did the IC50 [1] turn out when `CC[C@H](C)[C@H](NC(=O)[C@H](Cc1ccc(O)cc1)NC(=O)CNC(=O)[C@H](CO)NC(=O)[C@H](C)NC(=O)[C@@H](NC(=O)[C@H](Cc1c[nH]cn1)NC(=O)[C@@H](NC(=O)[C@H](C)NC(=O)[C@@H](NC(=O)[C@H](CC(C)C)NC(=O)[C@@H](NC(=O)[C@@H](NC(=O)[C@H](CCCCN)NC(=O)CNC(=O)[C@@H](N)CCC(=O)O)[C@@H](C)CC)[C@@H](C)CC)C(C)C)C(C)C)C(C)C)C(=O)N[C@@H](CCC(=O)O)C(N)=O` [integrase(69-85)] was run?
A: 2830 nM

Q: What about the IC50 (HLA-DR DRB3*02:02) of the same compound?
A: 7190 nM

Q: What about the IC50 (HLA-DR DRB1*01:01) of the same compound?
A: 0.56 nM

Q: And the IC50 (HLA-DR DRB1*09:01)?
A: 58 nM

Q: And the pIC50 [2]?
A: 6.67

Q: And the IC50 (HLA-DR DRB1*03:01)?
A: 7940 nM

Q: What about the IC50 [3] of the same compound?
A: 1370 nM

Q: And the IC50 (HLA-DR DRB1*15:01)?
A: 146 nM

Q: What about the IC50 (HLA-DR DRB3*01:01) of the same compound?
A: 624 nM

Q: What about the IC50 (HLA-DR DRB1*07:01) of the same compound?
A: 70 nM

Q: And the IC50 (HLA-DR DRB1*10:01)?
A: 4.8 nM

Q: What about the IC50 (HLA-DR DRB1*12:01) of the same compound?
A: 2940 nM
